Assay results published in PubChem BioAssay (NCI).
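The compound was tested at five concentrations on cells cultured in 96-well plates, with a 48-hour exposure period. TGI marks complete inhibition of growth.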

What was measured:
Assay in all cases: DTP human tumour cell line panel, 48 h
SK-MEL-5 melanoma = test system: SK-MEL-5 melanoma
SF-295 CNS = test system: SF-295 CNS
OVCAR-4 ovarian = test system: OVCAR-4 ovarian
SW-620 colon = test system: SW-620 colon
HOP-92 NSCLC = test system: HOP-92 NSCLC
SNB-75 CNS = test system: SNB-75 CNS
MDA-MB-231 breast = test system: MDA-MB-231 breast
COLO 205 colon = test system: COLO 205 colon
HCT-15 colon = test system: HCT-15 colon
OVCAR-5 ovarian = test system: OVCAR-5 ovarian
CCRF-CEM leukemia = test system: CCRF-CEM leukemia
HCC-2998 colon = test system: HCC-2998 colon
KM12 colon = test system: KM12 colon
HCT-116 colon = test system: HCT-116 colon
SNB-19 CNS = test system: SNB-19 CNS
U251 CNS = test system: U251 CNS
RPMI-8226 leukemia = test system: RPMI-8226 leukemia
M14 melanoma = test system: M14 melanoma
MCF7 breast = test system: MCF7 breast
MOLT-4 leukemia = test system: MOLT-4 leukemia
UACC-257 melanoma = test system: UACC-257 melanoma
SK-MEL-28 melanoma = test system: SK-MEL-28 melanoma
MDA-N = test system: MDA-N
EKVX NSCLC = test system: EKVX NSCLC
HS 578T breast = test system: HS 578T breast
SR leukemia = test system: SR leukemia
A498 renal = test system: A498 renal
NCI-H522 lung = test system: NCI-H522 lung
PC-3 prostate = test system: PC-3 prostate
SK-MEL-2 melanoma = test system: SK-MEL-2 melanoma
MDA-MB-435 = test system: MDA-MB-435
OVCAR-8 ovarian = test system: OVCAR-8 ovarian
HT29 colon = test system: HT29 colon
UO-31 renal = test system: UO-31 renal
SK-OV-3 ovarian = test system: SK-OV-3 ovarian
A549 NSCLC = test system: A549 NSCLC
OVCAR-3 ovarian = test system: OVCAR-3 ovarian
NCI/ADR-RES ovarian = test system: NCI/ADR-RES ovarian
BT-549 breast = test system: BT-549 breast
HOP-62 NSCLC = test system: HOP-62 NSCLC
SF-268 CNS = test system: SF-268 CNS
UACC-62 melanoma = test system: UACC-62 melanoma
MALME-3M melanoma = test system: MALME-3M melanoma
CAKI-1 renal = test system: CAKI-1 renal
NCI-H23 lung = test system: NCI-H23 lung
DU-145 prostate = test system: DU-145 prostate
ACHN renal = test system: ACHN renal
K-562 leukemia = test system: K-562 leukemia
786-0 renal = test system: 786-0 renal
RXF 393 renal = test system: RXF 393 renal
IGROV1 ovarian = test system: IGROV1 ovarian
NCI-H460 lung = test system: NCI-H460 lung

Measured: TGI

COc1ccc(CN2C[C@H]3[C@@H](CC(=O)O[C@H]3C)CC2=O)cc1
> 100 µM: all assays above
